A value given as a limit tells only on which side of the number the result lay.

For data set [1] the following is noted: nicotine:tartaric acid 1:2; in PG or VG or any mixture of PG and VG at ambient conditions. An excerpt: In some embodiments, acids that have poor solubility in the composition constituents are inappropriate for use in certain embodiments of the compositions herein. […] As used herein, weight percentage (w/w) refers to the weight of the individual component over the weight of the total formulation.

For data set [2] the following is noted: thermal decomposition of the acid; cited from earlier work.

As to `CN1CCCC1c1cccnc1.O=C(O)C(O)C(O)C(=O)O` (stereo not drawn) [nicotine bitartrate], the “concentration at which no solution is produced” value in data set [1] was < 0.5 % (w/w) nicotine.

`O=C(O)CC(O)C(=O)O` (stereo not drawn) [malic acid]: the decomposition temperature in data set [2] is 150 °C.

For the compound `O=C(O)CC(O)(CC(=O)O)C(=O)O` [citric acid], the decomposition temperature in data set [2] was 175 °C.
